Reference: patent US20240360151A1 (SANOFI, priority 2023, published 2024)
Where a name gives a salt, the structure may show the parent alone.

Tests used:
NLRP3 inflammasome = biological target: T1, NLRP3 inflammasome (Homo sapiens, UniProt Q96P20); experiment: IL-1β secretion assay (NLRP3 IC50) in LPS-primed, nigericin-activated THP-1 cells, HTRF; type: cell-based; settings: monocytic THP-1 cells; LPS 10 ng/mL 3 h priming, then compound + nigericin 10 μM 2 h; relative IC50, 10 concentrations, geometric mean
T1 construct: endogenous in cells; host or cells: THP-1 monocytic cells
T1 sequence (Q96P20 whole entry): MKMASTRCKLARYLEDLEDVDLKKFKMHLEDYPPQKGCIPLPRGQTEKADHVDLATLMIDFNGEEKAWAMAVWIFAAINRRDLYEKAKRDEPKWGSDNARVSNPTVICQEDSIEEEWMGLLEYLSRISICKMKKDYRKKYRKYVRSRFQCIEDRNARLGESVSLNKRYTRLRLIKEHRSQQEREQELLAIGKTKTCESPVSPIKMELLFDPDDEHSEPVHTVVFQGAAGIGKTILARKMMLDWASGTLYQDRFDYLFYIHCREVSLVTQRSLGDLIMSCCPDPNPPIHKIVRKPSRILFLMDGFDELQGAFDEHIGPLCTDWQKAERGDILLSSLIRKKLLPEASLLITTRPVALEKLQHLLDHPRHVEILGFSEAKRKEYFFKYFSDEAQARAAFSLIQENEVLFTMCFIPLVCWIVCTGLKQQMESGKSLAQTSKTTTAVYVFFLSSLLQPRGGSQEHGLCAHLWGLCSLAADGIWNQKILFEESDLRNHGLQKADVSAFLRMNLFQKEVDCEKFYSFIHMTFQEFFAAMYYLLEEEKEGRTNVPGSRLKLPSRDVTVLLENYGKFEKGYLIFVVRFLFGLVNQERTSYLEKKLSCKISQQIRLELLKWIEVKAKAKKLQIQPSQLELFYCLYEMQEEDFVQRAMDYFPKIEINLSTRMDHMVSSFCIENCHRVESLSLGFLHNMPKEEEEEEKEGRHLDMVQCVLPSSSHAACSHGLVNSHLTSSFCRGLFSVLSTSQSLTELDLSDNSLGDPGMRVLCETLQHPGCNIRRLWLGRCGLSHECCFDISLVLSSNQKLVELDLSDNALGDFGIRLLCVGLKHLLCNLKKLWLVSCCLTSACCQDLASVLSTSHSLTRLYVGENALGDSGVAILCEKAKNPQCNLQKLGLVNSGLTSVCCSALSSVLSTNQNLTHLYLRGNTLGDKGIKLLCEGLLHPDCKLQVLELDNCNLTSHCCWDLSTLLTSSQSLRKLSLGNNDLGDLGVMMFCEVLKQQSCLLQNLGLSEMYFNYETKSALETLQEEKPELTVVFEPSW
In short: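 IL-1β in supernatant read by HTRF after 2 h co-incubation of compound (0.1% DMSO, 10 concentrations, 1:3 series) with nigericin at 10 μM final, following 3 h LPS (10 ng/mL) priming of THP-1 monocytes at 37° C. Inhibition normalised to unactivated and no-compound controls; geometric-mean relative IC50 from 4-parameter logistic model.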

[1] = tested on: NF-kB pathway (TNF-α secretion by THP-1 cells); experiment: TNF-α secretion assay in LPS-stimulated THP-1 cells, Lumit immunoassay; type: cell-based, human; settings: Homo sapiens, THP-1, 3 h, monocytic THP-1 cells, LPS 10 ng/mL, relative IC50, 10 concentrations, geometric mean
In short: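 TNF-α release was quantified directly in the cell plate by Lumit immunoassay after a 3-h, 10 ng/mL LPS trigger of compound-treated THP-1 cells (RPMI, 5% FBS). Percent inhibition versus no-compound and unstimulated controls fed a 4-parameter logistic fit over 10 concentrations, giving geometric-mean relative IC50.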

Row | Structure (SMILES) | IC50 (NLRP3 inflammasome) [nM] | IC50 [1] [nM]
1 | Cc1cc(C)c(-c2ccc(N3CCC[C@]4(C3)C[C@@H](O)C4)nn2)c(O)c1 (single isomer, unassigned; isomer 2) [Example 176, 6-[6-(2-hydroxy-4,6-dimethyl-phenyl)pyridazin-3-yl]-6-azaspiro[3.5]nonan-2-ol Isomer 2] | 250 | > 10000
2 | CC(C)c1cc(N2CCO[C@H](CO)C2)nnc1-c1ccc(Cl)cc1O [Example 75, 5-chloro-2-[6-[(2S)-2-(hydroxymethyl)morpholin-4-yl]-4-isopropyl-pyridazin-3-yl]phenol] | 183 | 9600
3 | CCC(=O)C1CN(c2ccc(-c3c(C)cc(C)cc3O)nn2)CCO1 (centres unmarked) [Example 126, 1-[4-[6-(2-hydroxy-4,6-dimethylphenyl)pyridazin-3-yl]morpholin-2-yl]propan-1-one] | 484 | > 10000
4 | Cc1cc(C)c(-c2ccc(N3CCNC4(CCOC4)C3)nn2)c(O)c1 (centres unmarked) [Example 196, 3,5-dimethyl-2-[6-(2-oxa-6,9-diazaspiro[4.5]decan-9-yl)pyridazin-3-yl]phenol] | 452 | > 10000
5 | CC(=O)N1CC[C@@H]2OCCN(c3ccc(-c4c(C)cc(C(F)(F)F)cc4O)nn3)[C@@H]2C1 (single isomer, unassigned) [Example 263] | 180 | > 10000
6 | NC[C@@H]1CCCN(c2ccc(-c3c(O)cc(Cl)cc3Cl)nn2)C1 [Example 18, 2-[6-[(3S)-3-(aminomethyl)-1-piperidyl]pyridazin-3-yl]-3,5-dichloro-phenol] | 173 | > 10000
7 | Cc1cc(C(F)(F)F)cc(O)c1-c1ccc(N2C[C@H](O)CC2=O)nn1 [Example 132, (4R)-4-hydroxy-1-[6-[2-hydroxy-6-methyl-4-(trifluoromethyl)phenyl]pyridazin-3-yl]pyrrolidin-2-one] | 362 | > 10000
8 | Cc1cc(C(F)(F)F)cc(O)c1-c1ccc(N2CC[C@H]3CNC[C@@H]3C2=O)nn1 (racemic) [Example 269, rac-(3aS,7aS)-5-[6-[2-hydroxy-6-methyl-4-(trifluoromethyl)phenyl]pyridazin-3-yl]-2,3,3a,6,7,7a-hexahydro-1H-pyrrolo[3,4-c]pyridin-4-one, hydrochloride] | 404 | > 10000
9 | Cc1cc(C)c(-c2ccc(N3C[C@@H]4COC[C@H]4C3)nn2)c(O)c1 (stereo in doubt) [Example 207, 2-[6-[(3aR,6aR)-1,3,3a,4,6,6a-hexahydrofuro[3,4-c]pyrrol-5-yl]pyridazin-3-yl]-3,5-dimethyl-phenol] | 174 | 3010

More lines, in order of falling IC50 (NLRP3 inflammasome), values ahead:

Row | IC50 (NLRP3 inflammasome) [nM] | IC50 [1] [nM] | Structure (SMILES)
10 | 171 | > 10000 | OC[C@@H]1CN(c2cc(C(F)(F)F)c(-c3ccc(Cl)cc3O)nn2)CCO1 [Example 160, 5-chloro-2-[6-[(2S)-2-(hydroxymethyl)morpholin-4-yl]-4-(trifluoromethyl)pyridazin-3-yl]phenol]
11 | 132 | > 10000 | OC[C@@H]1CN(c2ccc(-c3c(O)cccc3C(F)(F)F)nn2)CCO1 [Example 54, 2-[6-[(2S)-2-(hydroxymethyl)morpholin-4-yl]pyridazin-3-yl]-3-(trifluoromethyl) phenol]
12 | 111 | > 10000 | Cc1cccc(O)c1-c1ccc(N2CCO[C@H](CO)C2)nn1 [Example 56, 2-[6-[(2S)-2-(hydroxymethyl)morpholin-4-yl]pyridazin-3-yl]-3-methyl-phenol]
13 | 108 | > 10000 | Cc1cc(C)c(-c2ccc(N3CCO[C@@H](CF)C3)nn2)c(O)c1 [Example 220, 2-[6-[(2R)-2-(fluoromethyl)morpholin-4-yl]pyridazin-3-yl]-3,5-dimethyl-phenol]
14 | 87 | > 10000 | Cc1cc(C(F)(F)F)cc(O)c1-c1ccc(N2CCO[C@H](CF)C2)nn1 (single isomer, unassigned) [Example 284]
15 | 76 | > 10000 | Cc1cc(C)c(-c2ccc(N3C[C@H](CO)O[C@@H](CO)C3)nn2)c(O)c1 [Example 201, 2-[6-[(2R,6R)-2,6-bis(hydroxymethyl)morpholin-4-yl]pyridazin-3-yl]-3,5-dimethyl-phenol]
16 | 68 | > 10000 | Cc1cc(-c2c(C)cc(Cl)cc2O)nnc1N1CCO[C@H](CO)C1 [Example 133, 5-chloro-2-[6-[(2S)-2-(hydroxymethyl)morpholin-4-yl]-5-methyl-pyridazin-3-yl]-3-methyl-phenol]
17 | 56 | > 10000 | CCN1CC[C@@H]2OCCN(c3ccc(-c4c(C)cc(Cl)cc4O)nn3)[C@@H]2C1 (single isomer, unassigned) [Example 312]
18 | 56 | > 10000 | Cc1cc(N2CCO[C@H](CO)C2)nnc1-c1ccc2c(c1O)CCC2 [Example 324, 5-[6-[(2S)-2-(hydroxymethyl)morpholin-4-yl]-4-methyl-pyridazin-3-yl]indan-4-ol]
19 | 52 | > 10000 | Cc1cc(N2CCO[C@H](CO)C2)nnc1-c1c(C)cc(Cl)cc1O [Example 149, 5-chloro-2-[6-[(2S)-2-(hydroxymethyl)morpholin-4-yl]-4-methyl-pyridazin-3-yl]-3-methyl-phenol]
20 | 47 | 4290 | Oc1cc(Cl)cc(Cl)c1-c1ccc(N2CCO[C@H](CF)C2)nn1 (single isomer, unassigned) [Example 238]
21 | 11 | > 10000 | Cc1cc(C(F)(F)F)cc(O)c1-c1ccc(N2C[C@@H](CO)O[C@@H](C)C2)nn1 [Example 297, 2-[6-[(2S,6S)-2-(hydroxymethyl)-6-methyl-morpholin-4-yl]pyridazin-3-yl]-3-methyl-5-(trifluoromethyl)phenol]
22 | 9 | > 10000 | Cc1cc(Cl)cc(O)c1-c1ccc(N2CCO[C@H]3CCNC[C@H]32)nn1 [Example 308, 2-[6-[(4aR,8aS)-2,3,4a,5,6,7,8,8a-octahydropyrido[4,3-b][1,4]oxazin-4-yl]pyridazin-3-yl]-5-chloro-3-methyl-phenol]
